The text below walks through data of patent publication US20090298820A1, “3-SUBSTITUTED-1H-PYRROLO[2,3-B]PYRIDINE AND 3-SUBSTITUTED-1H-PYRROLO[3,2-B]PYRIDINE COMPOUNDS, THEIR USE AS MTOR KINASE AND PI3 KINASE INHIBITORS, AND THEIR SYNTHESES” (Wyeth, priority 2008, published 2009).

Molecules are shown by their SMILES.

Common to all, as to assay type: biochemical
Test [1] concerns the target PI3Kα (Homo sapiens, UniProt P42336). The experiment in a line: PI3K-alpha fluorescence polarization assay. The note with it: read-out: PI3Kα Median IC50. In general terms: Polarisation of emitted light reports the rotation of a fluorescent probe.
For test [2], the target named is mTOR (Homo sapiens, UniProt P42345). The experiment in a line: mTOR enzyme assay (DELFIA format, His6-S6K substrate). To be noted: read-out: mTOR Kinase Median IC50.
In test [3] the target is PI3Kγ (Homo sapiens, UniProt P48736). In words: PI3K-gamma fluorescence polarization assay. To be noted: read-out: PI3Kγ Median IC50.
Sequence of PI3Kγ (P48736 whole entry, species assumed): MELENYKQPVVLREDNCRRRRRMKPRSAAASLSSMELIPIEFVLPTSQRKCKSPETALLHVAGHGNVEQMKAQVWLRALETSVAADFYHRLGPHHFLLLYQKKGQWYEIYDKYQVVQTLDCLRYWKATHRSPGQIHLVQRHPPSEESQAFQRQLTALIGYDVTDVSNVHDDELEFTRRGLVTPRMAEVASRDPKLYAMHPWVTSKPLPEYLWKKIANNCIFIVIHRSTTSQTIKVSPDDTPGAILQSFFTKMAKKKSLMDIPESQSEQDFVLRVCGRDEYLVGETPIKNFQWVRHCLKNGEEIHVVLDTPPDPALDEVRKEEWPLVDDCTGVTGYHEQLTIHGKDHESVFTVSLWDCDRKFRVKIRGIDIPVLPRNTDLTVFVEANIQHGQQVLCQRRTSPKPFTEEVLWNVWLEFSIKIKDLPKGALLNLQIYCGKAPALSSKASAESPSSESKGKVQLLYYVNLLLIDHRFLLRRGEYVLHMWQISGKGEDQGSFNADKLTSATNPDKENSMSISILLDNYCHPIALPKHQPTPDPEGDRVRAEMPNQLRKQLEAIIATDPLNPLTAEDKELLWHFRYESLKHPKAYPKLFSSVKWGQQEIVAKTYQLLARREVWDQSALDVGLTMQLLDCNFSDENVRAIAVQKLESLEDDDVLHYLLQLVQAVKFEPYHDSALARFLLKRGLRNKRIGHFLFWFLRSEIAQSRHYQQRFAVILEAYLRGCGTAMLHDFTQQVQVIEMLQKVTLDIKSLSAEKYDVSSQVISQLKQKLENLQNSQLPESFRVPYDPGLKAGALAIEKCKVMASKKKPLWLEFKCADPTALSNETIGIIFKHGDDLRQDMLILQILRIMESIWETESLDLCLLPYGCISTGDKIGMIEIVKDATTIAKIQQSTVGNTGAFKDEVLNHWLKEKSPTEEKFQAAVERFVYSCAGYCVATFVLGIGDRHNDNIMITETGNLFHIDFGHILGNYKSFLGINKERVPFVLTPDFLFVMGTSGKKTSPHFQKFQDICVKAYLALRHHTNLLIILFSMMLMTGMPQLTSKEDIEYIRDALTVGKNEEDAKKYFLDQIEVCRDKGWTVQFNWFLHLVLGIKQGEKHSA

Sequence of PI3Kα (P42336 whole entry, species assumed): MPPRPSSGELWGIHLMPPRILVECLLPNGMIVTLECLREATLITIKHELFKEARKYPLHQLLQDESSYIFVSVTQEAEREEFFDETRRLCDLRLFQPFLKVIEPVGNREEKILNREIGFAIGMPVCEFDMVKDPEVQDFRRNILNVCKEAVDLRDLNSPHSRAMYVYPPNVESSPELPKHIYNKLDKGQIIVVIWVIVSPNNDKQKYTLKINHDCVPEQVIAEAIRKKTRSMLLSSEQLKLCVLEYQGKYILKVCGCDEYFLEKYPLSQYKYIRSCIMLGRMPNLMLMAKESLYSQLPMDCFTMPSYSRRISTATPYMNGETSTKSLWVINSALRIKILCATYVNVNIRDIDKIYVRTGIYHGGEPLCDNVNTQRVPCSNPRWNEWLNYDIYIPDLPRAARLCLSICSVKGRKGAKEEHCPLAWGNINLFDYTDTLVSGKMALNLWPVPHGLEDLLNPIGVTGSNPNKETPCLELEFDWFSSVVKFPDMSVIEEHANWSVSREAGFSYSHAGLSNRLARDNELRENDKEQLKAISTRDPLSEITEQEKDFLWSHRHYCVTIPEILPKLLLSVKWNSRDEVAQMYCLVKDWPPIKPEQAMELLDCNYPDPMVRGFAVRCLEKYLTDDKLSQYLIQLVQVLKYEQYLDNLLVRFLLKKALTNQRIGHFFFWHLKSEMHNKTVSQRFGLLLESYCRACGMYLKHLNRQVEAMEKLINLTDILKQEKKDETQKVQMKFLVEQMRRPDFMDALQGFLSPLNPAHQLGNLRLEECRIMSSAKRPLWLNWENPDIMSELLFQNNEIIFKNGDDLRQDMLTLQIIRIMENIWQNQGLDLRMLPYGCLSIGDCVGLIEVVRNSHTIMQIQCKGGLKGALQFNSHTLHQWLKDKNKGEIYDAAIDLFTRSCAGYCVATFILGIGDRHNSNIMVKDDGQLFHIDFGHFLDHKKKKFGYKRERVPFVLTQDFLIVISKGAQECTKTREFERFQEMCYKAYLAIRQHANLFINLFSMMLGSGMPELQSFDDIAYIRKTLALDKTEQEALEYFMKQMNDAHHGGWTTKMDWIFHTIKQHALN
Sequence of PI3Kα (P27986 whole entry partner, species assumed): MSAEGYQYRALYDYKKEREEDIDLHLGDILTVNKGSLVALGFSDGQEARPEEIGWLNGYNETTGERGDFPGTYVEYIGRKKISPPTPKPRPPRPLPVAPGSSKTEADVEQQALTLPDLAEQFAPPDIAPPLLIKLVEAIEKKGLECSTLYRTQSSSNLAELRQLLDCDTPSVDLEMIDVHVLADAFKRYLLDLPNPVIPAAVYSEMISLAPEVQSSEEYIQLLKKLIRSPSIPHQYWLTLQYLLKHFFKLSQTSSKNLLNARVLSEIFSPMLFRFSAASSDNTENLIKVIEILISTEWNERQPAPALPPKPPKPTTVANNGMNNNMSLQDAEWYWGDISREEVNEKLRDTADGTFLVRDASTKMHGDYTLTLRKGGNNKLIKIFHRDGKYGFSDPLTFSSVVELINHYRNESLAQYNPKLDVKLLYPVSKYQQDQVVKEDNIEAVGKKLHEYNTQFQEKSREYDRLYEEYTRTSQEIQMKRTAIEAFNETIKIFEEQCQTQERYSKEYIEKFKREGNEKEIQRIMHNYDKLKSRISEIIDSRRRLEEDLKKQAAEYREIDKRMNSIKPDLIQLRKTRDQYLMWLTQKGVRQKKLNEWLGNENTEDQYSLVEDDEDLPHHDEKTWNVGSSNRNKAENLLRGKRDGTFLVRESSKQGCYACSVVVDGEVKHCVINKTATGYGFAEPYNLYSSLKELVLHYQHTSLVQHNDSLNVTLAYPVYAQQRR

Regarding `CCOC(=O)Nc1ccc2c(c1)C(=O)/C(=C/c1cn(C)c3nccc(N4CCC(C(=O)N(C)C)CC4)c13)O2` [Compound 171, ethyl[(2Z)-2-({4-[4-(dimethylcarbamoyl)piperidin-1-yl]-1-methyl-1H-pyrrolo[2,3-b]pyridin-3-yl}methylidene)-3-oxo-2,3-dihydro-1-benzofuran-5-yl]carbamate], the IC50 is 2000 nM in test [1], 66.5 nM in test [2] and 8740 nM in test [3].
With `Cn1cc(/C=C2\Oc3ccc(NC(=O)Nc4ccccc4)cc3C2=O)c2c(N3CC4CCC(C3)O4)ccnc21` [Compound 172, 1-[(2Z)-2-{[1-methyl-4-(8-oxa-3-azabicyclo[3.2.1]oct-3-yl)-1H-pyrrolo[2,3-b]pyridin-3-yl]methylidene}-3-oxo-2,3-dihydro-1-benzofuran-5-yl]-3-phenylurea], the IC50 in test [1] turned out to be 498 nM; in test [2] it was 145 nM; in test [3], 1120 nM.
Taken in the same sequence, the figures for `COCCN(C)C(=O)c1ccc(-c2ccnc3c2c(/C=C2\Oc4cccc(O)c4C2=O)cn3C)cc1` [Compound 175, 4-{3-[(Z)-(4-hydroxy-3-oxo-1-benzofuran-2(3H)-ylidene)methyl]-1-methyl-1H-pyrrolo[2,3-b]pyridin-4-yl}-N-(2-methoxyethyl)-N-methylbenzamide] were 73 nM, 0.9 nM and 152 nM.
Taken in the same sequence, the figures for `CCn1cc(/C=C2\Oc3ccc(NC(=O)Nc4cccnc4)cc3C2=O)c2c(-c3ccc(C(=O)N4CCN(CCO)CC4)cc3)ccnc21` [Compound 177, 1-[(2Z)-2-{[1-ethyl-4-(4-{[4-(2-hydroxyethyl)piperazin-1-yl]carbonyl}phenyl)-1H-pyrrolo[2,3-b]pyridin-3-yl]methylidene}-3-oxo-2,3-dihydro-1-benzofuran-5-yl]-3-pyridin-3-ylurea] were 2690 nM, 66 nM and 2360 nM.
The matching figures for `Cn1cc(/C=C2\Oc3ccc(NC(=O)Nc4cccnc4)cc3C2=O)c2c(-c3ccc(C(=O)N4CCOCC4)cc3)ccnc21` [Compound 178, 1-[(2Z)-2-({1-methyl-4-[4-(morpholin-4-ylcarbonyl)phenyl]-1H-pyrrolo[2,3-b]pyridin-3-yl}methylidene)-3-oxo-2,3-dihydro-1-benzofuran-5-yl]-3-pyridin-3-ylurea]: 1120 nM, 54.5 nM and 652 nM.
In the case of `CNC(=O)Nc1ccc2c(c1)C(=O)/C(=C/c1cn(C)c3nccc(-c4ccc(C(=O)N5CCOCC5)cc4)c13)O2` [Compound 179, 1-methyl-3-[(2Z)-2-({1-methyl-4-[4-(morpholin-4-ylcarbonyl)phenyl]-1H-pyrrolo[2,3-b]pyridin-3-yl}methylidene)-3-oxo-2,3-dihydro-1-benzofuran-5-yl]urea], the IC50 in test [1] came out at 249 nM; in test [2] it was 15 nM; in test [3] it was 578 nM.
As for `Cn1cc(/C=C2\Oc3cccc(O)c3C2=O)c2c(-c3ccc(S(=O)(=O)N4CCCCC4)cc3)ccnc21` [Compound 181, (2Z)-4-hydroxy-2-({1-methyl-4-[4-(piperidin-1-ylsulfonyl)phenyl]-1H-pyrrolo[2,3-b]pyridin-3-yl}methylidene)-1-benzofuran-3(2H)-one], the figures for the IC50 in test [1], in test [2] and in test [3] were 123 nM, 58 nM and 1210 nM, respectively.
As for `Cn1cc(/C=C2\Oc3ccc(NC(=O)Nc4cccnc4)cc3C2=O)c2c(-c3ccccc3)ccnc21` [Compound 183, 1-{(2Z)-2-[(1-methyl-4-phenyl-1H-pyrrolo[2,3-b]pyridin-3-yl)methylidene]-3-oxo-2,3-dihydro-1-benzofuran-5-yl}-3-pyridin-3-ylurea], the figures for the half-maximal inhibitory concentration (IC50) in test [1], in test [2] and in test [3] were 367 nM, 755 nM and 479 nM, respectively.
Taken in the same sequence, the figures for `CN1CCN(c2ccnc3c2c(/C=C2\Oc4ccc(NC(=O)Nc5cccnc5)cc4C2=O)cn3C)CC1` [Compound 184, 1-[(2Z)-2-{[1-methyl-4-(4-methylpiperazin-1-yl)-1H-pyrrolo[2,3-b]pyridin-3-yl]methylidene}-3-oxo-2,3-dihydro-1-benzofuran-5-yl]-3-pyridin-3-ylurea] were 632 nM, 83 nM and 484 nM.
The matching figures for `Cn1cc(/C=C2\Oc3ccc(NC(=O)Nc4cccnc4)cc3C2=O)c2c(N3CCOCC3)ccnc21` [Compound 185, 1-{(2Z)-2-[(1-methyl-4-morpholin-4-yl-1H-pyrrolo[2,3-b]pyridin-3-yl)methylidene]-3-oxo-2,3-dihydro-1-benzofuran-5-yl}-3-pyridin-3-ylurea]: 275 nM, 71 nM and 348 nM.
The matching figures for `CCn1cc(/C=C2\Oc3cccc(O)c3C2=O)c2c(-c3ccc(C(=O)N4CCN(CCO)CC4)cc3)ccnc21` [Compound 186, (2Z)-2-{[1-ethyl-4-(4-{[4-(2-hydroxyethyl)piperazin-1-yl]carbonyl}phenyl)-1H-pyrrolo[2,3-b]pyridin-3-yl]methylidene}-4-hydroxy-1-benzofuran-3(2H)-one]: 445 nM, 4.6 nM and 550 nM.
For the compound `Cn1cc(/C=C2\Oc3cccc(O)c3C2=O)c2c(-c3ccc(S(=O)(=O)N4CCCC4)cc3)ccnc21` [Compound 190, (2Z)-4-hydroxy-2-({1-methyl-4-[4-(pyrrolidin-1-ylsulfonyl)phenyl]-1H-pyrrolo[2,3-b]pyridin-3-yl}methylidene)-1-benzofuran-3(2H)-one], the IC50 in test [1] amounted to 26 nM; in test [2], 3.5 nM; in test [3] it was 80 nM.
Taken in the same sequence, the figures for `Cn1cc(/C=C2\Oc3cccc(O)c3C2=O)c2c(-c3ccc(S(=O)(=O)N4CCOCC4)cc3)ccnc21` [Compound 191, (2Z)-4-hydroxy-2-({1-methyl-4-[4-(morpholin-4-ylsulfonyl)phenyl]-1H-pyrrolo[2,3-b]pyridin-3-yl}methylidene)-1-benzofuran-3(2H)-one] were 34 nM, 3 nM and 101 nM.
The matching figures for `CONC(=O)c1ccc(-c2ccnc3c2c(/C=C2\Oc4cccc(O)c4C2=O)cn3C)cc1` [Compound 192, 4-{3-[(Z)-(4-hydroxy-3-oxo-1-benzofuran-2(3H)-ylidene)methyl]-1-methyl-1H-pyrrolo[2,3-b]pyridin-4-yl}-N-methoxybenzamide]: 26 nM, 1 nM and 39 nM.
The matching figures for `CN(CCO)C(=O)c1ccc(-c2ccnc3c2c(/C=C2\Oc4cccc(O)c4C2=O)cn3C)cc1` [Compound 195, N-(2-hydroxyethyl)-4-{3-[(Z)-(4-hydroxy-3-oxo-1-benzofuran-2(3H)-ylidene)methyl]-1-methyl-1H-pyrrolo[2,3-b]pyridin-4-yl}-N-methylbenzamide]: 140 nM, 4.3 nM and 234 nM.
For the compound `CON(C)C(=O)c1ccc(-c2ccnc3c2c(/C=C2\Oc4cccc(O)c4C2=O)cn3C)cc1` [Compound 196, 4-{3-[(Z)-(4-hydroxy-3-oxo-1-benzofuran-2(3H)-ylidene)methyl]-1-methyl-1H-pyrrolo[2,3-b]pyridin-4-yl}-N-methoxy-N-methylbenzamide], the 50% inhibitory concentration (IC50) in test [1] was 41 nM; in test [2], 1 nM; in test [3] it was 66 nM.
Turning to `COCCCN(C)C(=O)C1CCN(c2ccnc3c2c(C=C2Oc4ccc(NC(=O)Nc5cccnc5)cc4C2=O)cn3C)CC1` [Compound 199, N-(3-methoxypropyl)-N-methyl-1-[1-methyl-3-({3-oxo-5-[(pyridin-3-ylcarbamoyl)amino]-1-benzofuran-2(3H)-ylidene}methyl)-1H-pyrrolo[2,3-b]pyridin-4-yl]piperidine-4-carboxamide], the 50% inhibitory concentration (IC50) in test [1] turned out to be 2240 nM; in test [2], 12.5 nM; in test [3], 2990 nM.
`COCCCNC(=O)C1CCN(c2ccnc3c2c(C=C2Oc4ccc(NC(=O)Nc5cccnc5)cc4C2=O)cn3C)CC1` [Compound 200, N-(3-methoxypropyl)-1-[1-methyl-3-({3-oxo-5-[(pyridin-3-ylcarbamoyl)amino]-1-benzofuran-2(3H)-ylidene}methyl)-1H-pyrrolo[2,3-b]pyridin-4-yl]piperidine-4-carboxamide]: the IC50 is greater than 10000 nM in test [1], 4.8 nM in test [2] and greater than 10000 nM in test [3].
As for `Cn1cc(C=C2Oc3ccc(NC(=O)Nc4cccnc4)cc3C2=O)c2c(N3CCC(C(=O)NCC(N)=O)CC3)ccnc21` [Compound 202, N-(2-amino-2-oxoethyl)-1-[1-methyl-3-({3-oxo-5-[(pyridin-3-ylcarbamoyl)amino]-1-benzofuran-2(3H)-ylidene}methyl)-1H-pyrrolo[2,3-b]pyridin-4-yl]piperidine-4-carboxamide], the figures for the IC50 in test [1], in test [2] and in test [3] were 5900 nM, 4 nM and greater than 10000 nM, respectively.
The matching figures for `Cn1cc(C=C2Oc3ccc(NC(=O)Nc4cccnc4)cc3C2=O)c2c(N3CCC(C(=O)NCCN4CCCC4)CC3)ccnc21` [Compound 203, 1-[1-methyl-3-({3-oxo-5-[(pyridin-3-ylcarbamoyl)amino]-1-benzofuran-2(3H)-ylidene}methyl)-1H-pyrrolo[2,3-b]pyridin-4-yl]-N-(2-pyrrolidin-1-ylethyl)piperidine-4-carboxamide]: greater than 10000 nM, 19 nM and greater than 10000 nM.
Taken in the same sequence, the figures for `Cn1cc(C=C2Oc3ccc(NC(=O)Nc4cccnc4)cc3C2=O)c2c(N3CCC(C(=O)N4CC=CC4)CC3)ccnc21` [Compound 204, 1-[2-({4-[4-(2,5-dihydro-1H-pyrrol-1-ylcarbonyl)piperidin-1-yl]-1-methyl-1H-pyrrolo[2,3-b]pyridin-3-yl}methylidene)-3-oxo-2,3-dihydro-1-benzofuran-5-yl]-3-pyridin-3-ylurea] were 5620 nM, 10 nM and 1730 nM.

For orientation: IC50 means the concentration that inhibits the measured activity by half.
